The values below come from patent publication US20100136029A1, “Use of Tri-Substituted Glycerol Compounds for the Treatment of Hematological Malignancies” (UNIVERSITATSKLINIKUM HAMBURG-EPPENDORF, priority 2006, published 2010).

The test system of one series is Jurkat cells. As to the kind of experiment: cells. Particulars: Homo sapiens, 20 h. The protocol: Cell culture was performed as described in FIG. 1. ET-18-OCH3 was added in a final concentration of 2.5 or 5.0 μg/ml (“E2.5” and “E5”, respectively) without or in combination with 5 or 10 ng/ml bortezomib (“Vel5” and “Vel10”, respectively), and the cells were incubated for 20 h. Cell death was assessed as described in FIG. 1. The results are expressed as mean±SEM of three independent experiments.
(§1) The following human cell lines were used: • 1. KMS-12-BM (DMSZ no. ACC 551), bone marrow cells; myeloma/plasmacytoma; none of the genetic alterations defined herein; Chesi, M. et al. (2001), supra. • 2. K562 (ATCC no. CCL-243); bone marrow cells; CML; none of the genetic alterations defined herein; Delgado, M. D. et al. (2001), supra. • 3. […] OPM-2 (ATCC no. CRL-13007); lymphoblast cells; myeloma; t(4;14) chromosomal translocation; K650E FGFR3 gene mutation (AAG→GAG at codon 650); Chesi, M. et al. (2001), supra. • 5. NCI-H929 (ATCC no. CRL-9068); bone marrow cells; myeloma/plasmacytoma; t(4;14) chromosomal translocation; N13-G>D N-ras gene mutation (GGT→GAT at codon 13); Chesi, M. et al. (2001), supra. • 6. U266 (ATCC no. TIB-196); peripheral blood cells; myeloma/plasmacytoma; none of the genetic alterations defined herein; Chesi, M. et al. (2001), supra. • 7. HL60 (ATCC no. CCL-240); peripheral blood cells; AML; N61-Q>R N-ras gene mutation (CAA→CGA at codon 61); Bos, J. L. et al. (1984), supra. • 8. Jurkat (ATCC no. TIB-152); peripheral blood cells; ALL; 2 by deletion and 9 by insertion at codon 234 in exon 7 of the PTEN gene (resulting in downstream stop codons); Sakai, A. et al. (1998), supra.
(§2) The cells were grown in 96-well tissue culture plates in a volume of 200 μl to a concentration of 1×10^6 cells/ml. Then, the cells were incubated for 20 h with a final concentration of 5 μg/ml, 10 μg/ml, and 20 μg/ml 1-O-octadecyl-2-O-methyl-glycero-3-phosphocholine (ET-18-OCH3), respectively. Cell death was assessed by staining the cells with 7-amino-actinomycin D (Calbiochem, Darmstadt, Germany; final concentration 200 μg/ml) and analyzed via flow cytometry using a FACS-Scan flow cytometer (BD Biosciences, San Jose, Calif., USA) as described (see, e.g., Schmid, I. et al. (1994) J. Immunol. Meth. 170, 145-157; Ayuk, F. A. et al. (2005) Exp. Hematol. 33, 1531-1536).
(§3) The cells were again grown in 96-well tissue culture plates in a volume of 200 μl to a concentration of 1×10^6 cells/ml. Then, the cells were incubated for 20 h with the respective drugs. […] The cytotoxic effect of ET-18-OCH3 in combination with bortezomib was determined in Jurkat, HL60 cells, and RPMI8226 cell, whereas the cytotoxic effect of ET-18-OCH3 in combination with cytarabine, fludarabine and etoposide, respectively, in Jurkat and HL60 cells. Cell death was assessed as described in example 1.

The test system of the next series is RPMI8226. Nature of the series: Cytotoxicity (cell death) by 7-amino-actinomycin D staining and flow cytometry, RPMI8226 cells. The protocol: (§4) The following cell lines were used: KMS-12-BM, K562, RPMI8226, OPM-2, NCI-H929, U266, and HL60. The cells were grown in 96-well tissue culture plates in a volume of 200 μl to a concentration of 1×10^6 cells/ml. Then, the cells were incubated for 20 h with 5 μg/ml, 10 μg/ml, and 20 μg/ml ET-18-OCH3 (final concentrations), respectively. Cell death was assessed by staining the cells with 7-amino-actinomycin D (final concentration 200 μg/ml) and analyzed via flow cytometry as described (see, e.g., Schmid, I. et al. (1994) J. Immunol. Meth. 170, 145-157; Ayuk, F. A. et al. (2005) Exp. Hematol. 33, 1531-1536).
as §1, §2, §3
In general terms: A flow cytometer gives signals particle by particle.

The next series has as its system HL60 cells. Nature of the series: Cytotoxicity (cell death) by 7-amino-actinomycin D staining and flow cytometry, HL60 cells. The protocol:
as §4, §1, §2, §3

For a further series, the system named is OPM-2 cells. As to the kind of experiment: Cytotoxicity (cell death) by 7-amino-actinomycin D staining and flow cytometry, OPM-2 cells. In kind it is cell-based. The source says: (§5) The following human cell lines were used: • 1.
A further series deals with U266 cells. As to the kind of experiment: Cytotoxicity (cell death) by 7-amino-actinomycin D staining and flow cytometry, U266 cells. In kind it is cell-based, human. Particulars: U266, 20 h, 5, 10 and 20 μg/ml ET-18-OCH3, FIG. 1.
Excerpt: as §5

In the next series the test system is KMS-12-BM. Nature of the series: Cytotoxicity (cell death) by 7-amino-actinomycin D staining and flow cytometry, KMS-12-BM cells. In kind it is cell-based, human. To be noted: 20 h, 5, 10 and 20 μg/ml ET-18-OCH3, FIG. 1.
Excerpt: as §5

A further series concerns K562. As to the kind of experiment: Cytotoxicity (cell death) by 7-amino-actinomycin D staining and flow cytometry, K562 cells. The series is classed as cell-based, human. Particulars: K562, 20 h, 5, 10 and 20 μg/ml ET-18-OCH3, FIG. 1.
Excerpt: as §5

A further series deals with NCI-H929. As to the kind of experiment: Cytotoxicity (cell death) by 7-amino-actinomycin D staining and flow cytometry, NCI-H929 cells. The series is classed as cell-based.
Excerpt: as §5

Entries after “also recorded” stand apart in the source; their conditions may differ.

`CC(C)C[C@H](NC(=O)[C@H](Cc1ccccc1)NC(=O)c1cnccn1)B(O)O` [Bortezomib, bortezomib]: the cytotoxicity at 0.005 µg/mL in the series on Jurkat cells came to 0.4 ± 0.5%; with RPMI8226 (Homo sapiens, RPMI-8226, 20 h) it was 7.3 ± 4.5%; in the series with HL60 cells (Homo sapiens, HL-60, 20 h) it was 2.7 ± 1.9%. Also, the cytotoxicity at 0.01 µg/mL in the series on Jurkat cells stood at 3.6 ± 1.4%; in the series with RPMI8226 (Homo sapiens, RPMI-8226, 20 h), 25.1 ± 4%; with HL60 cells (Homo sapiens, HL-60, 20 h) it was 10.9 ± 3.7%.
Turning to `Nc1ccn([C@@H]2O[C@H](CO)[C@@H](O)[C@@H]2O)c(=O)n1` [Cytarabine, cytarabine], the cytotoxicity at 10 µM with Jurkat cells was 11.1 ± 0.5%; in the series on HL60 cells (Homo sapiens, HL-60, 20 h), 24 ± 2.8%. Also, the cytotoxicity at 40 µM in the series on Jurkat cells was found to be 12.4 ± 1.2%; in the series with HL60 cells (Homo sapiens, HL-60, 20 h), 26.9 ± 5%.
`CCCCCCCCCCCCCCCCCCOCC(COP(=O)([O-])OCC[N+](C)(C)C)OC` (stereo not shown) [ET-18-OCH3, 1-O-octadecyl-2-O-methyl-glycero-3-phosphocholine]: the cells died result in the series with OPM-2 cells (OPM-2, 20 h, 20 μg/ml ET-18-OCH3, FIG. 1) was “about 75%”. Further, the “cytotoxic effect, dose dependence” value with OPM-2 cells (OPM-2, 20 h, 5, 10 and 20 μg/ml ET-18-OCH3, FIG. 1) is listed as “dose-dependent effect”; with RPMI8226 (RPMI8226, 20 h, 5, 10 and 20 μg/ml ET-18-OCH3, FIG. 1), “dose-dependent effect”; in the series on NCI-H929 (NCI-H929, 20 h, 5, 10 and 20 μg/ml ET-18-OCH3, FIG. 1), “dose-dependent effect”; in the series on HL60 cells, “dose-dependent effect”. Besides, the “cytotoxic effect (cell death) in words” value is recorded as “do not respond to ET-18-OCH3 at all; also recorded: significantly reduced or even almost abolished” with U266 cells, “significantly reduced or even almost abolished; also recorded: dose-dependent effect” in the series with KMS-12-BM and “dose-dependent effect; also recorded: significantly reduced or even almost abolished” with K562. In addition, the cytotoxicity at 2.5 µg/mL with Jurkat cells was 2.1 ± 1%; with RPMI8226 (Homo sapiens, RPMI-8226, 20 h) it was 11.2 ± 8.1%; in the series on HL60 cells (Homo sapiens, HL-60, 20 h) it was 11.3 ± 7.3%. The cytotoxicity at 5 µg/mL in the series with Jurkat cells was found to be 13.1 ± 5.3%; in the series with RPMI8226 (Homo sapiens, RPMI-8226, 20 h), 34.7 ± 13.2%; with HL60 cells (Homo sapiens, HL-60, 20 h) it was 35 ± 15.9%. The “cell death in words” value with RPMI8226 (RPMI8226, 20 h, 20 μg/ml ET-18-OCH3, FIG. 1) is reported as “almost complete cell death”; in the series with NCI-H929 (NCI-H929, 20 h, 20 μg/ml ET-18-OCH3, FIG. 1) it was “almost complete cell death”; with HL60 cells (HL60, 20 h, 20 μg/ml ET-18-OCH3, FIG. 1) it was “almost complete cell death”.
As to `COc1cc([C@@H]2c3cc4c(cc3[C@@H](O[C@@H]3O[C@@H]5CO[C@@H](C)O[C@H]5[C@H](O)[C@H]3O)[C@H]3COC(=O)[C@H]23)OCO4)cc(OC)c1O` [Etoposide, etoposide], in the series on Jurkat cells, the cytotoxicity at 1 µM was found to be 5.9 ± 1.1%, the cytotoxicity at 2.5 µM was 10 ± 0.8% and the cytotoxicity at 5 µM turned out to be 16.8 ± 8.4%. For the same molecule, in the series with HL60 cells (Homo sapiens, HL-60, 20 h), the cytotoxicity at 1 µM stood at 4.1 ± 0.7%, the cytotoxicity at 2.5 µM was 10.7 ± 5.4% and the cytotoxicity at 5 µM amounted to 23.3 ± 8.2%.
Regarding `Nc1nc(F)nc2c1ncn2[C@@H]1O[C@H](CO)[C@@H](O)[C@@H]1O` [Fludarabine, fludarabine], in the series on Jurkat cells, the cytotoxicity at 10 µM is 2.4 ± 0.9% and the cytotoxicity at 50 µM turned out to be 6.2 ± 2.4%. Moreover, in the series with HL60 cells (Homo sapiens, HL-60, 20 h), the cytotoxicity at 10 µM was determined as 13.8 ± 9.4% and the cytotoxicity at 50 µM stood at 37.2 ± 4.6%.
